Test results published in US20040023362A1, “Degradation of polycyclic aromatic hydrocarbons by microorganisms” (priority 2000, published 2004).
In brackets after ≈: the same amount, converted by molar mass.

What was measured:
[1] = test system: S. maltophilia VUN 10,010; assay: Degradation of single high molecular weight PAHs by high initial populations of VUN 10,010 with surfactant; type: cell-based, Stenotrophomonas maltophilia
Protocol: […] Incubations contained a single PAH in BSM at 30° C. The PAH remaining was calculated as a percentage relative to the PAH recovered from the […]. Averages for the test cultures are from triplicate experiments.
Tergitol NP-10 (5 and 10 g l^−1) was added to BSM broths each containing a single high molecular weight PAH.

[2] = test system: Bacterial consortium VUN 10,009; assay: Degradation of high molecular weight PAHs by axenic cultures; type: cell-based
Protocol: (§1) PAH concentrations in the DCM extracts were measured on a Varian Star 3400 gas chromatograph, equipped with a flame ionization detector, using a BPX-5 capillary column (25 m×0.22 mm). The nitrogen carrier flow rate was 0.8 ml min^−1 with a pressure of 20 psi under split conditions (95:1). The oven temperature was programmed at 200° C. for 1 min, followed by a linear increase of 10° C. min^−1 to 320° C.; this temperature was held for 15 min. Injector and detector temperatures were maintained at 300° C. The peak areas of both internal standard and PAH were used to calculate peak area ratios. Ratios obtained for each sample, as well as controls, were compared to those of PAH standards.
(§2) PAH degradation experiments using axenic bacterial and fungal cultures, and fungal-bacterial co-culture, were performed in 30 ml reaction vials containing 10 ml of medium. Before inoculation, 0.1 ml of PAH stock solution (either single PAH or mixed PAH stock as described above) was introduced into the medium. This medium was then inoculated with microorganisms to produce either axenic cultures or co-cultures. Axenic cultures were inoculated with either bacteria (1 ml) to provide an initial cell population of approximately 10^4 cells ml^−1, or with mycelial pellets (0.25 g wet weight) in 10 ml of BSM. For the co-culture experiments, BSM (10 ml) contained bacteria (10^4 cells ml^−1) and 0.25 g wet weight of mycelial pellets. Experiments to investigate of co-metabolic PAH degradation by P. janthinellum were conducted with the PAH in BSM supplemented with glucose (1% final concentration) or MYPD medium. […] Medium (10 ml) was inoculated with fungal or bacterial culture using the same inoculum size as described above. All cultures were aseptically flushed with filtered (0.22 μm) air (0.2 litres min^−1) for 5 seconds on the day of inoculation and every 7 days thereafter. Abiotic controls were sterile medium containing only PAH(s). Killed-cell controls were the PAH-containing medium inoculated with a killed microbial population. The experimental cultures were conducted in triplicate, and all controls were run in duplicate. All cultures were incubated in the dark at 30° C./175 rpm. At designated time intervals the entire culture (10 ml) was sacrificed for the PAH-extraction procedure and biomass determinations.

[3] = test system: P. janthinellum VUO 10,201; assay: as above; type: cell-based, Penicillium janthinellum
Protocol: as §1, §2

VUN 10,010 = assay: as above; type: cell-based, Stenotrophomonas maltophilia
Protocol: as §1, §2

[4] = test system: S. maltophilia VUN 10,010; assay: Degradation of a PAH mixture by VUN 10,010 with surfactant, low initial cell population; type: cell-based, Stenotrophomonas maltophilia; settings: for Maximum Specific Degradation Rate: — = not appreciable
Protocol: The incubations were conducted in BSM at 30° C., using low initial cell populations. The PAH remaining was calculated as a percentage relative to the PAH recovered from the uninoculated control. Averages for the test cultures are from triplicate experiments.
A low initial cell population of around 9×10^3 cells ml^−1 was used.

physchem = assay: physchem
Protocol: PAHs (approximately 1 g l^−1) were added to a 10 ml solution of BSM plus surfactant in a 30 ml glass reaction vial, which was sealed with an aluminium cap fitted with a septum. Surfactant concentrations corresponded to levels above, below, and at the CMC, and replicates were set up to allow sampling in duplicate at different time intervals up to 72 h. Incubation was performed at 30° C. and 175 rpm. The entire vial contents was collected by syringe and expressed through a preconditioned membrane filter (0.22 μm, Sartorius AG, Germany) to remove solid-phase crystalline PAH while allowing solubilized PAH in the aqueous phase and micellar pseudophase to pass into sterile vials. The filter was preconditioned by purging the filter with a few mls of sample solution to allow sorption saturation of the internal surfaces of the syringe, filter and needle. The filtrates were extracted with dichloromethane (DCM), and the concentration of solubilized PAH was determined by GC-FID as described below.
The effectiveness of a particular surfactant in solubilizing a given PAH can be assessed by determining the molar solubilization ratio (MSR) and micelle/water partition coefficient (Km). In our study, the concentrations of added PAHs were well in excess of aqueous saturation concentrations; therefore the MSR value of each compound can be obtained from the slope of the curve generated from a plot of PAH concentration versus surfactant concentration for surfactant concentrations above CMC (Edwards et al, 1991).
Km values can be determined from the measured MSR values according to the following equation (Edwards et al, 1991): [formula]
^SPAH, CMC is the apparent solubility of the PAH (mol l^−1) at surfactant CMC. VW is the molar volume of water at 30° C. ie. 0.018015 l mol^−1(Rogers and Mayhew, 1981).

strain VUN 10,010 = assay: Agar (well) diffusion toxicity test of surfactants; type: cell-based, Stenotrophomonas maltophilia; settings: peptone-glucose agar, 30° C.
Protocol: The agar diffusion method was used to determine the effects of surfactants on growth by observing zones of inhibition on peptone-glucose agar (Cserhali et al, 1991). The medium contained per litre: 5 g peptone, 5 g glucose, 0.5 g NaCl, 3 g beef extract, 20 g agar; the pH was adjusted to 7.0 and sterilized by autoclaving for 15 min at 121° C. Bacterial cultures were mixed with the molten medium (25 ml) to obtain an inoculum size of approximately 10^8 cells ml^−1, and this was poured into a Petri dish. Once the cell-medium mixture had solidified, 7 mm diameter holes were made, and 150 μl of aqueous surfactant solutions was added (0.1-10.0 g l^−1). Growth inhibition zones were observed after 48-72 h at 30° C.

[5] = Tergitol NP-10 5 g l^−1, Single PAH
[6] = Tergitol NP-10 10 g l^−1, Single PAH
[7] = BSM + PYR (pyrene 250 mg l^−1), 28 day samples
[8] = Tergitol NP-10 5 g l^−1, Mixed PAH

SMILES	Maximum Specific Degradation Rate ([1]; Brij 35 5 g l^−1, Single PAH)	percentage change in maximum specific degradation rate due to surfactant addition ([1]; Brij 35 5 g l^−1, Single PAH)	Maximum Specific Degradation Rate ([1]; Brij 35 10 g l^−1, Single PAH)	percentage change in maximum specific degradation rate due to surfactant addition ([1]; Brij 35 10 g l^−1, Single PAH)	Maximum Specific Degradation Rate ([1]; No Surfactant, Single PAH)	Maximum Specific Degradation Rate [1, 5]	percentage change in maximum specific degradation rate due to surfactant addition [1, 5]	Maximum Specific Degradation Rate [1, 6]	percentage change in maximum specific degradation rate due to surfactant addition [1, 6]	PAH removal (%) [2, 7]	PAH removal (%) ([2]; BSM, 56 day samples)	PAH removal (%) ([3]; BSM, 56 day samples)	PAH removal (%) ([3]; BSM^g, 28 day samples)	PAH removal (%) ([3]; MYPD, 28 day samples)	PAH removal (%) (VUN 10,010; [7])	PAH removal (%) (VUN 10,010; BSM, 56 day samples)	Maximum Specific Degradation Rate ([4]; No Surfactant, Mixed PAH)	percentage change in maximum specific degradation rate due to surfactant addition [4, 8]	Maximum Specific Degradation Rate [4, 8]	further results
c1ccc2cc3c(ccc4ccccc43)cc2c1 [Benz[a]anthracene, benz[a]anthracene]	7.18 mg PAH degraded mg^−1 protein day^−1	+63%	7.37 mg PAH degraded mg^−1 protein day^−1	+67%	4.41 mg PAH degraded mg^−1 protein day^−1	9.66 mg PAH degraded mg^−1 protein day^−1	+119%	11.14 mg PAH degraded mg^−1 protein day^−1	+153%	9.6 + 0.7%	7.8 ± 0.3%	9.1 ± 1.4%	18.1 ± 2.3%	23.1 ± 1.2%	19.84 + 0.3%	8.2 ± 1.6%	1.71 mg PAH degraded mg^−1 protein day^−1	+90%	3.25 mg PAH degraded mg^−1 protein day^−1	
c1ccc2c(c1)cc1ccc3cccc4ccc2c1c34 [Benzo[a]pyrene, benzo[a]pyrene]	5.84 mg PAH degraded mg^−1 protein day^−1	−6%	5.47 mg PAH degraded mg^−1 protein day^−1	−12%	6.21 mg PAH degraded mg^−1 protein day^−1	6.73 mg PAH degraded mg^−1 protein day^−1	+8%	7.90 mg PAH degraded mg^−1 protein day^−1	27%	23.3 + 0.5%	6.7 ± 0.9%	16.9 ± 0.2%	56.5 ± 2.4%	72.2 ± 3.2%	32.2 + 1.2%	12.3 ± 1.0%	1.43 mg PAH degraded mg^−1 protein day^−1	+201%	4.30 mg PAH degraded mg^−1 protein day^−1	solubility (physchem; 30° C.): ~0.0159 µM (≈ 0.00401 µg/mL); solubility (physchem; 30 °C, aqueous with cosolvent or surfactant or cyclodextrin, thermodynamic from solid): 160 to 180 µM (≈ 40.4 to 45.4 µg/mL)
CCCCCCCCCCCCCCCC[N+](C)(C)C.[Br-] [CTAB]																				inhibitory concentration in well diffusion toxicity test (strain VUN 10,010): 0.01 to 0.05 g/L
c1ccc2c(c1)ccc1c3ccccc3ccc21 [Chrysene, chrysene]	7.35 mg PAH degraded mg^−1 protein day^−1	+64%	7.93 mg PAH degraded mg^−1 protein day^−1	+77%	4.49 mg PAH degraded mg^−1 protein day^−1	6.44 mg PAH degraded mg^−1 protein day^−1	+43%	4.16 mg PAH degraded mg^−1 protein day^−1	−7%	12.1 + 0.4%	8.2 ± 0.5%	12.2 ± 0.4%	25.6 ± 1.9%	31.7 ± 3.7%	28.3 + 1.2%	9.1 ± 1.2%	1.42 mg PAH degraded mg^−1 protein day^−1	+94%	2.76 mg PAH degraded mg^−1 protein day^−1	PAH degradation rate in the presence of surfactants ([1]; Tergitol NP-10 5 and 10 g l^−1, high initial cell population): did not show improved PAH degradation rate
c1ccc2c(c1)ccc1cc3c(ccc4ccccc43)cc12 [Dibenz[a,h]anthracene, dibenz[a,h]anthracene]	6.26 mg PAH degraded mg^−1 protein day^−1	+50%	7.20 mg PAH degraded mg^−1 protein day^−1	+73%	4.17 mg PAH degraded mg^−1 protein day^−1	7.32 mg PAH degraded mg^−1 protein day^−1	+76%	8.74 mg PAH degraded mg^−1 protein day^−1	110%	13.8 + 0.9%	5.9 ± 0.5%	12.9 ± 0.3%	24.4 ± 2.7%	36.7 ± 1.7%	26.7 + 0.7%	7.8 ± 0.6%	1.20 mg PAH degraded mg^−1 protein day^−1	+140%	2.89 mg PAH degraded mg^−1 protein day^−1	concentration in the aqueous phase (physchem; at surfactant CMC, gas chromatograph): below the detection limit
c1cc2ccc3cccc4ccc(c1)c2c34 [Pyrene, pyrene]											100.0 ± 0.0%	3.3 ± 0.3%	80.3 ± 2.8%	93.6 ± 2.8%		100.0 ± 0.0%				
CCCCCCCCCCCCOS(=O)(=O)[O-].[Na+] [SDS]																				MIC (strain VUN 10,010): 200 µg/mL
